Test results from patent US20230416329A1, “A PEPTIDE WITH DISULFIDE BONDS AND INHIBITORY ACTIVITY AGAINST SERINE PROTEASES, DERIVED HYBRID PEPTIDES THEREOF, AND USES THEREOF” (INSTITUTE OF MATERIA MEDICA , CHINESE ACADEMY OF MEDICAL …, priority 2020, published 2023).
Bridge positions count the residues as written; N and C are the ends. Ends that are not written are not given here.

Columns and labels:
[1] = system: P407-induced hyperlipidemia mice; assay: Subcutaneous injection of PCSK9 inhibitory peptide, serum total cholesterol in P407-induced hyperlipidemia mice; type: in vivo, mouse; details: for TC 15 min / TC 30 min / TC 60 min / TC 90 min / TC 120 min: serum, subcutaneous 2 μmol/kg, mean ± sd; for TC 15 min: 15 min after administration; for TC 30 min: 30 min after administration; for TC 60 min: 60 min after administration; for TC 90 min: 90 min after administration; for serum total cholesterol (TC) level after subcutaneous injection (in words): 2 μmol/kg single s.c., P407-induced hyperlipidemia mice; for TC 120 min: 120 min after administration
Procedure: The experimental peptide sample was prepared using PEG400 with a final concentration of […], and the final concentration of PEG400 is 20% (w/v). Normal ICR mice were fasted overnight with water ad libitum. The next day, all of the mice were randomly divided into model control group (Con) and polypeptide administration group (2 μmol/kg) according to body weight. Then, all of the mice were intraperitoneally injected with P407 (500 mg/kg) and fed with feed 2 hours later. Six mice were taken as a normal control group (Nor). After 24 hours, the mice in Con were subcutaneously injected with saline containing 20% PEG400, and the mice in the treatment group were given peptides. Then, the blood was taken at different time points after administration to determine the serum total cholesterol (TC) level. In consideration of the complexity of factors affecting serum LDL-C levels, especially the differences between single and long-term administration, the in vivo activity of PCSK9 inhibitory peptide is mainly observed for changes in serum TC levels.

[2] = biological target: T1, interaction of PCSK9-LDLR (Homo sapiens, UniProt Q8NBP7); assay: PCSK9-LDLR in vitro binding assay (inhibitory rate); details: in vitro
T1 construct: purchased MBL Company, Beijing, China CY-8150
Procedure: Polypeptide PCSK9_1-14 (SEQ ID NOs: 210-223) is dissolved in pure water or DMSO. 85 μL reaction buffer, 5 μL 1 mM polypeptide sample and 10 μL 750 ng/mL PCSK9 protein was pre-incubated at room temperature for 20 minutes before being added to a 96 well plate. The OD450/540 nm value was measured according to the instructions of the PCSK9-LDLR in Vitro Binding Assay Kit (CY-8150, MBL Company, Beijing, China). Solvent control: replace polypeptide with 5 μL solvent. In 100 μL reaction system, the final concentration of the polypeptide and PCSK9 is 50 μM and 75 ng/mL, respectively.
Inhibition rate of polypeptide (%)=(OD450/540 nm(solvent control)−OD450/540 nm (sample))/OD450/540 nm(solvent control)×100

Substance | TC 15 min [1] [µg/mL] | TC 30 min [1] [µg/mL] | TC 60 min [1] [µg/mL] | TC 90 min [1] [µg/mL] | inhibitory activity on the interaction between PCSK9 and LDLR (in words) [2] | further results
CGRATKSIPPICFGTVFTSWEEALDWV (cysteine pairing not given here) | 3466 ± 662 | 3490 ± 741 | 3294 ± 649 | 3265 ± 678 | good inhibitory activity on the interaction between PCSK9 and LDLR | inhibitory activity on the interaction between PCSK9 and LDLR (in words) ([2]; listed as SEQ ID NO: 212): good inhibitory effects in vitro
ICTASIPPICQGTVFTSWEEALDWV (cysteine pairing not given here) | 2885 ± 769 | 2673 ± 724 | 2695 ± 699 | 2605 ± 759 | good inhibitory activity on the interaction between PCSK9 and LDLR | inhibitory activity on the interaction between PCSK9 and LDLR (in words) ([2]; listed as SEQ ID NO: 227): good inhibitory effects in vitro
PCSK9_8: Pep2-8 analogue containing the anti-trypsin peptide scaffold BT9 (Table 23) (TVFTSGCGRATKSIPPICFSWEEYLDWV; disulfide 7-18 (inferred)) | 2269 ± 489 | 2216 ± 465 | 2074 ± 470 | 2037 ± 509 | good inhibitory activity on the interaction between PCSK9 and LDLR | inhibitory activity on the interaction between PCSK9 and LDLR (in words) ([2]; listed as SEQ ID NO: 217): good inhibitory effects in vitro
Phe-Cys-Thr-Tyr-Ser-Ile-Pro-Pro-Gln-Cys-Tyr-Gly-Gly-Thr-Val-Phe-Thr-Ser-Trp-Glu-Glu-Ala-Leu-Asp-Trp-Val (FCTYSIPPQCYGGTVFTSWEEALDWV; disulfide 2-10 (inferred)) [PCSK9_3CH] | 3509 ± 1031 | 3828 ± 774 | 3930 ± 1509 | 3435 ± 838 | good inhibitory activity on the interaction between PCSK9 and LDLR | inhibitory activity on the interaction between PCSK9 and LDLR (in words) ([2]; listed as SEQ ID NO: 226): good inhibitory effects in vitro
Thr-Val-Phe-Thr-Ser-Gly-Arg-Cys-Thr-Lys-Ser-Ile-Pro-Pro-Ile-Cys-Phe-Trp-Glu-Glu-Tyr-Leu-Asp-Trp-Val (TVFTSGRCTKSIPPICFWEEYLDWV; disulfide 8-16 (inferred)) [PCSK9_9] | – | 3143 ± 842 | 3516 ± 914 | 3409 ± 970 | good inhibitory activity on the interaction between PCSK9 and LDLR | serum total cholesterol (TC) level after subcutaneous injection (in words) [1]: reduced serum TC level; serum total cholesterol (TC) level after subcutaneous injection (in words) ([1]; listed as SEQ ID NO: 218): excellent lowering lipid (total cholesterol) activities in vivo; TC 120 min [1]: 327.4 ± 90.4 mg/dL; inhibitory activity on the interaction between PCSK9 and LDLR (in words) ([2]; listed as SEQ ID NO: 218): good inhibitory effects in vitro
Thr-Val-Phe-Thr-Ser-Gly-Cys-Gly-Arg-Ala-Thr-Lys-Ser-Ile-Pro-Pro-Ile-Cys-Phe-Trp-Glu-Glu-Tyr-Leu-Asp-Trp-Val (TVFTSGCGRATKSIPPICFWEEYLDWV; disulfide 7-18 (inferred)) [PCSK9_7] | – | 3398 ± 990 | 3618 ± 954 | 3461 ± 937 | good inhibitory activity on the interaction between PCSK9 and LDLR | TC 120 min [1]: 337.6 ± 95.8 mg/dL; inhibitory activity on the interaction between PCSK9 and LDLR (in words) ([2]; listed as SEQ ID NO: 216): good inhibitory effects in vitro
Thr-Val-Phe-Thr-Ser-Gly-Ile-Cys-Thr-Ala-Ser-Ile-Pro-Pro-Ile-Cys-Gln-Trp-Glu-Glu-Tyr-Leu-Asp-Trp-Val (TVFTSGICTASIPPICQWEEYLDWV; disulfide 8-16 (inferred)) [PCSK9_9EC] | 2789 ± 797 | 2744 ± 909 | 2676 ± 783 | 2657 ± 838 | good inhibitory activity on the interaction between PCSK9 and LDLR | inhibitory activity on the interaction between PCSK9 and LDLR (in words) ([2]; listed as SEQ ID NO: 233): good inhibitory effects in vitro
Thr-Val-Phe-Thr-Ser-Gly-Phe-Cys-Thr-Tyr-Ser-Ile-Pro-Pro-Gln-Cys-Tyr-Gly-Trp-Glu-Glu-Tyr-Leu-Asp-Trp-Val (TVFTSGFCTYSIPPQCYGWEEYLDWV; disulfide 8-16 (inferred)) [PCSK9_9CH] | 3727 ± 1154 | 4212 ± 753 | 3658 ± 664 | 2891 ± 710 | good inhibitory activity on the interaction between PCSK9 and LDLR | inhibitory activity on the interaction between PCSK9 and LDLR (in words) ([2]; listed as SEQ ID NO: 232): good inhibitory effects in vitro
Thr-Val-Phe-Thr-Ser-Trp-Glu-Glu-Ala-Leu-Asp-Trp-Val-Cys-Gly-Arg-Ala-Thr-Lys-Ser-Ile-Pro-Pro-Ile-Cys-Phe (TVFTSWEEALDWVCGRATKSIPPICF; disulfide 14-25 (inferred)) [PCSK9_2] | – | 3079 ± 1081 | 3178 ± 1039 | 3078 ± 1044 | good inhibitory activity on the interaction between PCSK9 and LDLR | TC 120 min [1]: 295.5 ± 95.4 mg/dL; inhibitory activity on the interaction between PCSK9 and LDLR (in words) ([2]; listed as SEQ ID NO: 211): good inhibitory effects in vitro
Thr-Val-Phe-Thr-Ser-Trp-Glu-Glu-Ala-Leu-Asp-Trp-Val-Gly-Ile-Cys-Thr-Ala-Ser-Ile-Pro-Pro-Ile-Cys-Gln (TVFTSWEEALDWVGICTASIPPICQ-OH; disulfide 16-24 (inferred)) [PCSK9_2EC] | 2954 ± 455 | 2859 ± 535 | 2853 ± 487 | 2757 ± 475 | good inhibitory activity on the interaction between PCSK9 and LDLR | inhibitory activity on the interaction between PCSK9 and LDLR (in words) ([2]; listed as SEQ ID NO: 225): good inhibitory effects in vitro
Thr-Val-Phe-Thr-Ser-Trp-Glu-Glu-Ala-Leu-Asp-Trp-Val-Gly-Phe-Cys-Thr-Tyr-Ser-Ile-Pro-Pro-Gln-Cys-Tyr-Gly (TVFTSWEEALDWVGFCTYSIPPQCYG-OH; disulfide 16-24 (inferred)) [PCSK9_2CH] | 2772 ± 762 | 2586 ± 700 | 2737 ± 762 | 2489 ± 760 | good inhibitory activity on the interaction between PCSK9 and LDLR | inhibitory activity on the interaction between PCSK9 and LDLR (in words) ([2]; listed as SEQ ID NO: 224): good inhibitory effects in vitro
